Target: T1, Hw-A (H. walsbyi amylomaltase) (Haloquadratum walsbyi, UniProt Q18H55)
T1 construct: gene malQ; full length plus 21 vector residues incl; N-terminal His6 tag (p15TV-L), E. coli Origami (DE3), about 67 kDa, tag not reported cut
Experiment: starch transglycosylation, decrease of starch-iodine absorbance at […] nm
Assay type: biochemical
Conditions: acceptor substrate (best of those tested), 0.05%; donor 0.15% starch; 50 mM sodium phosphate pH 7, 1 M NaCl, 40 °C, 1 h

T1 sequence (Q18H55 entry or part of it): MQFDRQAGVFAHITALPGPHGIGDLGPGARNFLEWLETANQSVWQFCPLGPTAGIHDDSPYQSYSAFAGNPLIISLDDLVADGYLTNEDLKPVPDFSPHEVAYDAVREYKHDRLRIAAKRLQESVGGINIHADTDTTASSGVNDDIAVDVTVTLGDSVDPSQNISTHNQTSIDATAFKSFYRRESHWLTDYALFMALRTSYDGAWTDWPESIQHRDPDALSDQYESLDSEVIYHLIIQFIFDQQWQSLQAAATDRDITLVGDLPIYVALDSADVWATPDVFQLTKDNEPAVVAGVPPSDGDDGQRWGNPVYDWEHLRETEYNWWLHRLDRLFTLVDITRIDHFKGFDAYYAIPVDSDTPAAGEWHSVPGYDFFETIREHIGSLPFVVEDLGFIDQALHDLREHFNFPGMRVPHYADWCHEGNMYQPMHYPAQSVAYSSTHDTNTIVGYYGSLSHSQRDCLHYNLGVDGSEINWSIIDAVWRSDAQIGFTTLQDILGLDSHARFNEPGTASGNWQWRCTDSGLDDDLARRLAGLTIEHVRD

SMILES: OC[C@H]1O[C@H](O[C@H]2[C@H](O)[C@@H](O)[C@@H](O[C@H]3[C@H](O)[C@@H](O)C(O)O[C@@H]3CO)O[C@@H]2CO)[C@H](O)[C@@H](O)[C@@H]1O (stereo partly shown) [maltotriose]
- starch transglycosylation, decrease of starch-iodine absorbance at 620 nm: The assays indicated maltotriose as the best acceptor for starch degradation

Reference: publication PMC8781629, “Identification of an Amylomaltase from the Halophilic Archaeon Haloquadratum walsbyi by Functional Metagenomics: Structural and Functional Insights” (Life, 2022)
